Measurements reported in the NIST ThermoML archive (doi:10.1016/j.jct.2018.11.004).
Where “and” joins values, the source holds several entries; their conditions need not be identical. Identical values can stand only once. Numbers after ± are expanded uncertainties.

Experiments:
[1] = molar heat capacity at constant pressure; conditions: 100 kPa, Extra sensitive DSC
[2] = for Triple point temperature: DSC
[3] = Molar enthalpy of transition or fusion; conditions: DSC

CC(C)[C@@H]1CC[C@@H](C)C[C@H]1O (racemic) [DL-menthol]
Conditions | molar heat capacity at constant pressure [J/K/mol] | vapor or sublimation pressure
[1], 265 K, Crystal 1 | 217.6 ± 8.4 | –
[1], 270 K, Crystal 1 | 221.3 ± 8.6 | –
[1], 270 K, Metastable crystal | 217.5 ± 8.4 | –
[1], 275 K, Crystal 1 | 225.3 ± 8.7 | –
[1], 275 K, Metastable crystal | 219.5 ± 8.5 | –
[1], 280 K, Crystal 1 | 229.5 ± 8.9 | –
[1], 280 K, Metastable crystal | 223.1 ± 8.6 | –
[1], 285 K, Crystal 1 | 234.2 ± 9.1 | –
[1], 285 K, Metastable crystal | 229 ± 8.9 | –
[1], 315.4 K, Liquid | 377.3 ± 15 | –
[1], 320 K, Liquid | 384.2 ± 15 | –
[1], 325 K, Liquid | 392 ± 15 | –
[1], 330 K, Liquid | 399.8 ± 16 | –
[1], 335 K, Liquid | 406.9 ± 16 | –
[1], 340 K, Liquid | 412.7 ± 16 | –
[1], 345 K, Liquid | 418.1 ± 16 | –
[1], 350 K, Liquid | 423.7 ± 16 | –
[1], 355 K, Liquid | 429 ± 17 | –
[2], 273.65 K, Crystal 1 | – | 0.000259 ± 0.00011 kPa
[2], 273.66 K, Crystal 1 | – | 0.000261 ± 0.00011 kPa
[2], 277.57 K, Crystal 1 | – | 0.000442 ± 0.00011 kPa
[2], 277.59 K, Crystal 1 | – | 0.000442 ± 0.00011 kPa
[2], 277.6 K, Crystal 1 | – | 0.00044 ± 0.00011 kPa
[2], 278.16 K, Crystal 1 | – | 0.00048 ± 0.00011 kPa and 0.000479 ± 0.00011 kPa and 0.000477 ± 0.00011 kPa
[2], 278.28 K, Metastable crystal | – | 0.000597 ± 0.00021 kPa and 0.000607 ± 0.00021 kPa
[2], 278.29 K, Metastable crystal | – | 0.00061 ± 0.00021 kPa
[2], 282.56 K, Crystal 1 | – | 0.000853 ± 0.00011 kPa
[2], 282.57 K, Crystal 1 | – | 0.000852 ± 0.00011 kPa
[2], 282.59 K, Crystal 1 | – | 0.000854 ± 0.00011 kPa
[2], 283.12 K, Metastable crystal | – | 0.00109 ± 0.00021 kPa
[2], 283.13 K, Metastable crystal | – | 0.0011 ± 0.00021 kPa and 0.001093 ± 0.00021 kPa
[2], 283.15 K, Crystal 1 | – | 0.000922 ± 0.00011 kPa
[2], 283.16 K, Crystal 1 | – | 0.000921 ± 0.00011 kPa and 0.000926 ± 0.00011 kPa
[2], 287.34 K, Crystal 1 | – | 0.001562 ± 0.00011 kPa
[2], 287.43 K, Crystal 1 | – | 0.001579 ± 0.00011 kPa
[2], 287.59 K, Crystal 1 | – | 0.001607 ± 0.00011 kPa
[2], 288.14 K, Metastable crystal | – | 0.002021 ± 0.00021 kPa and 0.00201 ± 0.00021 kPa
[2], 288.15 K, Metastable crystal | – | 0.00201 ± 0.00021 kPa
[2], 288.16 K, Crystal 1 | – | 0.001734 ± 0.00011 kPa and 0.001736 ± 0.00011 kPa
[2], 292.79 K, Crystal 1 | – | 0.003041 ± 0.00012 kPa
[2], 292.84 K, Crystal 1 | – | 0.003054 ± 0.00012 kPa
[2], 292.9 K, Crystal 1 | – | 0.003078 ± 0.00012 kPa
[2], 293.14 K, Crystal 1 | – | 0.003173 ± 0.00012 kPa and 0.00318 ± 0.00012 kPa
[2], 293.14 K, Metastable crystal | – | 0.003615 ± 0.00021 kPa and 0.003596 ± 0.00021 kPa and 0.003627 ± 0.00021 kPa
[2], 293.14 K, Metastable liquid | – | 0.003971 ± 0.00012 kPa and 0.003966 ± 0.00012 kPa and 0.003969 ± 0.00012 kPa
[2], 293.15 K, Crystal 1 | – | 0.003183 ± 0.00012 kPa
[2], 293.54 K, Metastable liquid | – | 0.00414 ± 0.00012 kPa and 0.004147 ± 0.00012 kPa
[2], 293.55 K, Metastable liquid | – | 0.004144 ± 0.00012 kPa
[2], 298.13 K, Metastable liquid | – | 0.006551 ± 0.00013 kPa
[2], 298.14 K, Metastable crystal | – | 0.00634 ± 0.00022 kPa and 0.006361 ± 0.00022 kPa and 0.006351 ± 0.00022 kPa
[2], 298.14 K, Metastable liquid | – | 0.006556 ± 0.00013 kPa and 0.00655 ± 0.00013 kPa
[2], 298.16 K, Crystal 1 | – | 0.005733 ± 0.00013 kPa [middle of 4 runs]
[2], 298.17 K, Crystal 1 | – | 0.005739 ± 0.00014 kPa
[2], 298.18 K, Crystal 1 | – | 0.005738 ± 0.00014 kPa
[2], 298.45 K, Metastable liquid | – | 0.006763 ± 0.00016 kPa
[2], 298.46 K, Metastable liquid | – | 0.00678 ± 0.00016 kPa
[2], 298.47 K, Metastable liquid | – | 0.006777 ± 0.00016 kPa
[2], 303.13 K, Metastable liquid | – | 0.01059 ± 0.00016 kPa
[2], 303.14 K, Crystal 1 | – | 0.01009 ± 0.00015 kPa and 0.0101 ± 0.00015 kPa
[2], 303.14 K, Metastable liquid | – | 0.0106 ± 0.00016 kPa
[2], 303.15 K, Crystal 1 | – | 0.0101 ± 0.00015 kPa
[2], 303.17 K, Crystal 1 | – | 0.01013 ± 0.00023 kPa
[2], 303.19 K, Crystal 1 | – | 0.01017 ± 0.00023 kPa
[2], 303.2 K, Crystal 1 | – | 0.01019 ± 0.00023 kPa
[2], 303.42 K, Metastable liquid | – | 0.01089 ± 0.00025 kPa and 0.01091 ± 0.00025 kPa
[2], 303.43 K, Metastable liquid | – | 0.01091 ± 0.00025 kPa
[2], 308.14 K, Liquid | – | 0.01683 ± 0.00023 kPa and 0.01682 ± 0.00023 kPa and 0.01681 ± 0.00023 kPa
[2], 308.42 K, Liquid | – | 0.01728 ± 0.00038 kPa
[2], 308.43 K, Liquid | – | 0.01728 ± 0.00038 kPa and 0.01729 ± 0.00038 kPa
[2], 313.42 K, Liquid | – | 0.0268 ± 0.00058 kPa
[2], 313.43 K, Liquid | – | 0.02682 ± 0.00058 kPa
[2], 313.44 K, Liquid | – | 0.02686 ± 0.00058 kPa
[2], 318.39 K, Liquid | – | 0.04089 ± 0.00088 kPa
[2], 318.4 K, Liquid | – | 0.04092 ± 0.00088 kPa
[2], 318.42 K, Liquid | – | 0.041 ± 0.00089 kPa
[2], 323.41 K, Liquid | – | 0.06149 ± 0.0013 kPa and 0.06146 ± 0.0013 kPa
[2], 328.43 K, Liquid | – | 0.09086 ± 0.0019 kPa
[2], 333.43 K, Liquid | – | 0.1322 ± 0.0028 kPa
[2], 333.44 K, Liquid | – | 0.1323 ± 0.0028 kPa
[2], 338.35 K, Liquid | – | 0.188 ± 0.004 kPa
[2], 338.36 K, Liquid | – | 0.188 ± 0.004 kPa
[2], 343.2 K, Liquid | – | 0.2626 ± 0.0056 kPa
[2], 343.21 K, Liquid | – | 0.2628 ± 0.0056 kPa
[2], 348.1 K, Liquid | – | 0.3638 ± 0.0077 kPa
[2], 348.11 K, Liquid | – | 0.3638 ± 0.0077 kPa
[2], 353.03 K, Liquid | – | 0.4979 ± 0.011 kPa
[2], 362.97 K, Liquid | – | 0.9031 ± 0.019 kPa

Conditions | Molar enthalpy of transition or fusion, [3] [kcal/mol] | Triple point temperature, [2] [K]
Crystal 1 | 3.27 ± 0.0956 | 305.7 ± 0.8
Metastable crystal | 2.37 ± 0.12 | 300.7 ± 0.8
